Results on two molecules are retold here after patent US20240067693A1, “POLYPEPTIDES AND USES THEREOF” (MEDIMMUNE LIMITED, priority 2020, published 2024).

Numbered stars: 1 amine (or outer) side, 2 acyl side, 3 side chain; on linkers, the order of the positions; unused ones are H or OH. Bridge positions count the residues as written; N and C are the ends. Square brackets hold non-standard residues; d marks the D form. Side chains are listed from the residue outwards. Peptide text beside a SMILES is read from it. * marks the point of attachment. C18 diacid = O=C(O)CCCCCCCCCCCCCCCCC(=O)*; γGlu = O=C(O)[C@H](CCC(=O)[*:2])N[*:1]; Aib = CC(C)(N)C(=O)O

Assay [1] addresses T1, human amylin receptor (calcitonin receptor co-expressed with receptor activity modifying protein, RAMP3) (hAMYR3) (Homo sapiens, UniProt O60896+P30988).
T1 construct: expressed in transfected cells
T1 sequence (P30988 25-474): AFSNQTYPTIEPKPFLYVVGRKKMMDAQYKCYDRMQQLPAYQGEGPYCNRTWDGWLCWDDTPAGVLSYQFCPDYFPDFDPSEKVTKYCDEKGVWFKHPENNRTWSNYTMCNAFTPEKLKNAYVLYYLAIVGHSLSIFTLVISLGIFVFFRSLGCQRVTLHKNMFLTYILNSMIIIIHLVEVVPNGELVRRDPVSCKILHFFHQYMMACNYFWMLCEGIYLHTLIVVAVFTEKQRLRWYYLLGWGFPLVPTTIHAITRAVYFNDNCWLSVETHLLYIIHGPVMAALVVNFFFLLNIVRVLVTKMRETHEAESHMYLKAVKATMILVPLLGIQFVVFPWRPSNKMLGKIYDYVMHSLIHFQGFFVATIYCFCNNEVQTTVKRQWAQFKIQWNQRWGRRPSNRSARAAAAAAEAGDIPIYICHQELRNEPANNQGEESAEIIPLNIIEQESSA
T1 sequence (O60896 24-148 partner): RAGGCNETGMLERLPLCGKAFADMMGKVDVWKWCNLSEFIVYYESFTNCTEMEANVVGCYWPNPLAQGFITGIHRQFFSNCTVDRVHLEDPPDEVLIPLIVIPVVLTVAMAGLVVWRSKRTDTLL
Put plainly: cAMP production in 1321N1 cells with stable recombinant expression of human amylin receptor (hAMYR3). The assay is classed as cell-based. Conditions: for Ratio (selectivity hAMYR vs hCTR, ratio of EC50 values at the two receptors): EC50 hCTR / EC50 hAMYR3; for EC50: cAMP, 1321N1 cells, assay buffer with 0.1% BSA, read-out: EC50 (pM) hAMYR3. In outline: (§1)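 EC50 values come from 4-parameter logistic fits of HTRF cAMP signal, normalised to maximal calcitonin or amylin effect. Peptides were tested in duplicate for 30 min at RT in IBMX-containing (0.5 mM) BSA/HEPES buffer pH 7.4 on stable 1321N1 (human CTR, AMYR3) or HEK (rat CTR, AMYR3) lines.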
On the technique in general: Cyclic AMP is a second messenger, typically raised through Gs and lowered through Gi signalling.

For assay [2], the target named is T2, human calcitonin receptor (hCTR) (Homo sapiens, UniProt P30988).
T2 construct: expressed in transfected cells
T2 sequence (P30988 25-474): T1 sequence (P30988 25-474)
Kind of assay: cAMP production in 1321N1 cells with stable recombinant expression of human calcitonin receptor (hCTR). The assay is classed as cell-based. Conditions: cAMP, 1321N1 cells, assay buffer with 0.1% BSA; read-out: EC50 (pM) hCTR. In outline: as §1

By EC50 is commonly meant the concentration giving half of the maximal effect. On to `CC[C@H](C)[C@H](NC(=O)[C@@H]1CCCN1C(=O)CNC(=O)[C@H](Cc1ccccc1)NC(=O)[C@H](CC(N)=O)NC(=O)C(C)(C)NC(=O)[C@H](CO)NC(=O)[C@H](CO)NC(=O)[C@H](Cc1c[nH]cn1)NC(=O)[C@@H](NC(=O)[C@H](CC(C)C)NC(=O)[C@H](Cc1ccccc1)NC(=O)[C@H](Cc1c[nH]cn1)NC(=O)[C@H](C)NC(=O)[C@H](CC(C)C)NC(=O)[C@H](CCCNC(=N)N)NC(=O)[C@H](CCC(N)=O)NC(=O)[C@@H](NC(=O)[C@H](C)NC(=O)[C@@H]1CSSC[C@H](NC(=O)[C@H](CCCCN)NC(=O)[C@@H](N)CCCCNC(=O)CC[C@H](NC(=O)CCCCCCCCCCCCCCCCC(=O)O)C(=O)O)C(=O)N[C@@H](CC(N)=O)C(=O)N[C@@H]([C@@H](C)O)C(=O)N[C@@H](C)C(=O)N[C@@H]([C@@H](C)O)C(=O)N1)[C@@H](C)O)C(C)C)C(=O)N[C@@H](CC(C)C)C(=O)N1CCC[C@H]1C(=O)N1CCC[C@H]1C(=O)N[C@H](C(=O)N[C@@H](CC(N)=O)C(=O)N[C@H](C(=O)NCC(=O)N[C@@H](CO)C(=O)N[C@@H](CC(N)=O)C(=O)N[C@H](C(=O)N[C@@H](Cc1ccc(O)cc1)C(N)=O)[C@@H](C)O)C(C)C)[C@@H](C)O` [Peptide 46, K(γE-C18diacid)K[CNTATC]ATQRLAHFLVHSS(Aib)NFGPILPPTNVGSNTY-amide] (H-K([γGlu-C18 diacid])KCNTATCATQRLAHFLVHSS[Aib]NFGPILPPTNVGSNTY-NH2; disulfide 3-8), for which, in assay [1], the “Ratio (selectivity hAMYR vs hCTR, ratio of EC50 values at the two receptors)” value is 3 and the EC50 is 109 pM. Further, in assay [2], the EC50 stood at 362 pM.

Take `CC[C@H](C)[C@H](NC(=O)[C@@H]1CCCN1C(=O)CNC(=O)[C@H](Cc1ccccc1)NC(=O)[C@H](CC(N)=O)NC(=O)[C@H](CC(N)=O)NC(=O)[C@H](CO)NC(=O)[C@H](CO)NC(=O)[C@H](Cc1c[nH]cn1)NC(=O)C(C)(C)NC(=O)[C@H](CC(C)C)NC(=O)[C@H](Cc1ccccc1)NC(=O)[C@H](CC(N)=O)NC(=O)[C@H](C)NC(=O)[C@H](CC(C)C)NC(=O)[C@H](CCCNC(=N)N)NC(=O)[C@H](CCC(N)=O)NC(=O)[C@@H](NC(=O)[C@H](C)NC(=O)[C@@H]1CSSC[C@H](NC(=O)[C@H](CCCCN)NC(=O)[C@@H](N)CCCCNC(=O)CC[C@H](NC(=O)CCCCCCCCCCCCCCCCC(=O)O)C(=O)O)C(=O)N[C@@H](CC(N)=O)C(=O)N[C@@H]([C@@H](C)O)C(=O)N[C@@H](C)C(=O)N[C@@H]([C@@H](C)O)C(=O)N1)[C@@H](C)O)C(=O)N[C@@H](CC(C)C)C(=O)N1CCC[C@H]1C(=O)N1CCC[C@H]1C(=O)N[C@H](C(=O)N[C@@H](CC(N)=O)C(=O)N[C@H](C(=O)NC(C)(C)C(=O)N[C@@H](CO)C(=O)N[C@@H](CC(N)=O)C(=O)N[C@H](C(=O)N[C@@H](Cc1ccc(O)cc1)C(N)=O)[C@@H](C)O)C(C)C)[C@@H](C)O` [Peptide 100, K(γE-C18diacid)K[CNTATC]ATQRLANFL(Aib)HSSNNFGPILPPTNV(Aib)SNTY-amide] (H-K([γGlu-C18 diacid])KCNTATCATQRLANFL[Aib]HSSNNFGPILPPTNV[Aib]SNTY-NH2; disulfide 3-8; N-terminus assumed): in assay [1], the “Ratio (selectivity hAMYR vs hCTR, ratio of EC50 values at the two receptors)” value was 1 and the EC50 turned out to be 364 pM. Besides, in assay [2], the EC50 was 459 pM.
